Reference: PubChem BioAssay AID1996
≈ marks a conversion by molar mass, not a printed value.

Settings: buffer; pH 7.4; 200.0 µM

Row | SMILES | solubility kinetic
1 | COc1ccccc1/C=C/C(=O)Nc1ccc(N2CCOCC2)cc1 | 1 µg/mL (≈ 2.96 µM)
2 | C[N+](C)=C1SCC(C)(/C=N/O)S1.[Br-] (centres undefined) | > 42.8 µg/mL
3 | O=C(Cc1c[nH]c2ccccc12)NCc1ccncc1 | > 39.8 µg/mL
4 | Cc1noc(C)c1CSc1ccccc1C(=O)O | > 39.5 µg/mL
5 | C=CCn1cc(/C=C2/NC(=O)NC2=O)c2ccccc21 | 1 µg/mL (≈ 3.74 µM)
6 | CS(=O)(=O)Nc1ccc(S(=O)(=O)N2CCCCCC2)cc1 | 48.3 µg/mL (≈ 145 µM)
7 | COCC(C)n1c(C)cc(C(=O)COC(=O)c2cccn2C)c1C (centres undefined) | > 49.9 µg/mL
8 | O=C(NC(=S)Nc1ccc(O)cc1)c1ccccc1Cl | 20.5 µg/mL (≈ 66.8 µM)
9 | O=S(=O)(Nc1ccccc1F)c1ccc(Cl)nc1 | > 43 µg/mL
10 | S=c1sc2c(Cl)ncnc2n1-c1ccccc1 | 8.3 µg/mL (≈ 29.7 µM)
11 | COc1ccccc1-n1cnnc1SCC(=O)N1CCOCC1 | > 50.2 µg/mL
12 | O=C(O)c1ccc(NCc2ccc(Br)cc2)cc1 | > 45.9 µg/mL
13 | Cc1c(C(=O)OC(C)C(=O)N(C)Cc2ccccc2)oc2ccccc12 (centres undefined) | 18.5 µg/mL (≈ 52.6 µM)
14 | CC(C)(C)CNc1cc(N2CCOCC2)ccc1[N+](=O)[O-] | 1.8 µg/mL (≈ 6.14 µM)
15 | Cc1cc(C)c(C)c(OCC(=O)O/N=C(\N)c2cccnc2)c1 | 2.5 µg/mL (≈ 7.98 µM)
16 | CC(OC(=O)C1=COCCO1)C(=O)NC1CCCCC1C (centres undefined) | > 44.6 µg/mL
17 | COC(=O)C1=C(NC(=O)c2ccccc2C)CCS1 | 10 µg/mL (≈ 36.1 µM)
18 | N#Cc1cc2c(nc1Cl)CCC2 | 20.2 µg/mL (≈ 113 µM)
19 | COc1ccc(C2CC(=O)NC(=O)C2)cc1 | 22.3 µg/mL (≈ 102 µM)
20 | Cc1nc2ccc(NC(=S)NC3CCCCC3)cc2nc1C | > 47.2 µg/mL

Row | SMILES | solubility kinetic
21 | COC(=O)c1ccc(COC(=O)CNC(=O)CNC(=O)c2ccc(OC)cc2)cc1 | 16.1 µg/mL (≈ 38.9 µM)
22 | COc1ccc(N2CCN(C(=O)c3cc4c(s3)CCCCC4)CC2)cc1 | 5.3 µg/mL (≈ 14.3 µM)
23 | O=C(O)CSc1nccc2ccccc12 | > 32.9 µg/mL
24 | Cc1ccc(C2NC(c3ccc(C)cc3)C(C)C(=O)C2C)cc1 (centres undefined) | < 0.7 µg/mL
25 | Cc1csc(NC(=O)c2ccc[nH]c2=O)n1 | > 35.3 µg/mL
26 | O=C(CSc1ccccc1F)NCCCN1CCCC1=O | > 46.6 µg/mL
27 | C=CCn1c(O)c(C(CC)=NCc2ccco2)c(=O)[nH]c1=O | > 45.5 µg/mL
28 | O=C(CSc1nccc(=O)[nH]1)NC1CCCCCC1 | > 42.2 µg/mL
29 | Cc1cc(C)cc(C(=O)N2CCC3(CC2)NCCc2[nH]cnc23)c1 | > 48.7 µg/mL
30 | CCCNC(=O)NS(=O)(=O)c1ccc(Cl)cc1 | > 41.5 µg/mL
31 | O=C(NCC(=O)N1CCCC(C(F)(F)F)C1)c1ccc(Oc2ccccc2)cc1 (centres undefined) | 36.3 µg/mL (≈ 89.3 µM)
32 | O=C(O)CC(NC(=O)C12CC3CC(CC(C3)C1)C2)c1cccc([N+](=O)[O-])c1 (centres undefined) | > 55.9 µg/mL
33 | COc1ccc(CSC2=NCCN2)cc1Br | 30.9 µg/mL (≈ 103 µM)
34 | O=C1C2C3C=CC(CC3)C2C(=O)N1c1ccc(Cl)cc1 (centres undefined) | < 0.6 µg/mL
35 | CCN(CC)c1nc2c(c(=O)n(C)c(=O)n2C)n1CCCc1ccccc1 | 50.7 µg/mL (≈ 137 µM)
36 | O=c1[nH]c2ccccc2nc1Cc1ccc([N+](=O)[O-])cc1 | 3.6 µg/mL (≈ 12.8 µM)
37 | COc1ccc(C(=O)N2CCC(O)(c3ccc(Cl)cc3)CC2)cc1OC | > 56.4 µg/mL
38 | COc1ccc(NC(=O)c2cc(-c3ccccn3)nc3ccccc23)c(OC)c1 | 3.8 µg/mL (≈ 9.86 µM)
39 | COc1ccc(NC2SC(=O)N(C)C2=O)cc1 (centres undefined) | 37.6 µg/mL (≈ 149 µM)
40 | COc1ccc(C(=O)NCc2ccc3[nH]c(C)cc3c2)cc1OC | 23.5 µg/mL (≈ 72.4 µM)

Row | SMILES | solubility kinetic
41 | Cc1cc2cc(CNC(=O)Cc3ccc([N+](=O)[O-])cc3)ccc2n1C | 0.3 µg/mL (≈ 0.889 µM)
42 | C1CN(c2nc(N3CCOCC3)nc(N3CCOCC3)n2)CCO1 | 20.6 µg/mL (≈ 61.2 µM)
43 | O=C(/C=C/c1ccc(Cl)c([N+](=O)[O-])c1)c1cccnc1 | 2.2 µg/mL (≈ 7.62 µM)
44 | Cn1ccnc1SCC(=O)c1ccc(OC(F)F)cc1 | > 44.7 µg/mL
45 | Cn1c(SCC(=O)Nc2cccnc2Cl)nnc1-c1ccco1 | > 52.5 µg/mL
46 | c1ccc(-c2cc3ccccc3[nH]2)cc1 | 0.7 µg/mL (≈ 3.62 µM)
47 | O=C(Cn1cnc([N+](=O)[O-])c1)Nc1ccccc1C(F)(F)F | 39 µg/mL (≈ 124 µM)
48 | N#Cc1cc([N+](=O)[O-])ccc1NC(=O)COC(=O)CN1C(=O)C2CCCCC2C1=O (centres undefined) | > 62.2 µg/mL
49 | O=C(c1cc2cc(Cl)ccc2[nH]1)N1CCC2(CC1)OCCO2 | 16 µg/mL (≈ 49.9 µM)
50 | CCN1CCc2c(C#N)c(NCc3ccccc3)nc(NCCO)c2C1 | 6.3 µg/mL (≈ 17.9 µM)
51 | O=C(Nc1cccc(Cl)c1)NC1CC2CCC1C2 (centres undefined) | 1.1 µg/mL (≈ 4.15 µM)
52 | CCN(CC)c1ccc(N=Cc2c(O)n(CCc3ccc(OC)c(OC)c3)c(=O)[nH]c2=O)cc1 | 9.5 µg/mL (≈ 20.4 µM)
53 | CN1CCC(OC(=O)COc2ccc(F)cc2)CC1.Cl | > 45.6 µg/mL
54 | O=C(O)c1ccc(Cl)c(NCc2cccs2)c1 | 34.8 µg/mL (≈ 130 µM)
55 | COc1ccccc1C(=O)OCC(=O)NC(C)CCc1ccccc1 (centres undefined) | > 51.2 µg/mL
56 | COc1cc(-c2cc(C(=O)Nc3cc(S(=O)(=O)N4CCOCC4)ccc3O)c3ccccc3n2)cc(OC)c1OC | 3.3 µg/mL (≈ 5.69 µM)
57 | COc1ccc(OC)c(-c2c3c([nH]c(=S)c2C#N)CCCC3)c1 | 10.4 µg/mL (≈ 31.9 µM)
58 | C/C(=N/O)c1no[n+]([O-])c1/C(C)=N\O | > 30 µg/mL
59 | CN(C)C(=O)CCCCCCCCC(=O)N(C)C | > 38.5 µg/mL
